Experimental findings from PMC3136501 (PLoS ONE, 2011) are described below.

Structures are written as SMILES.

This test deals with T1, human OCT3 (Homo sapiens, UniProt O75751).
T1 sequence (O75751 1-556): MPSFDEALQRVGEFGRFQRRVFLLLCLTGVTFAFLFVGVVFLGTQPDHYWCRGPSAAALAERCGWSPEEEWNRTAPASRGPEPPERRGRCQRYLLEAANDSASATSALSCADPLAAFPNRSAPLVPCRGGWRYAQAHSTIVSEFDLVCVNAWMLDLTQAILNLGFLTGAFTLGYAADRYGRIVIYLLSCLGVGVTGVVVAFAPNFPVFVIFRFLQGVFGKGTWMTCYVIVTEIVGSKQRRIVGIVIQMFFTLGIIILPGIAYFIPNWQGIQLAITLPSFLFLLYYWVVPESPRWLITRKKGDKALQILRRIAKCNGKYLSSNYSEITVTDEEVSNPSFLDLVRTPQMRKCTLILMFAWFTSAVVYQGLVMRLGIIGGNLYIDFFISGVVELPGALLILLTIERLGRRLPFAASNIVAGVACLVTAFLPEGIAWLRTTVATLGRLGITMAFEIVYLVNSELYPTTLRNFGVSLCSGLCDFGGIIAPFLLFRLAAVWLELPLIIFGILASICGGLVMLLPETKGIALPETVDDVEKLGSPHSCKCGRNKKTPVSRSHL
Description: Inhibition of OCT3-mediated metformin uptake in stably transfected HEK cells. Format: cell-based. The conditions noted are these: for IC50: 5 µM [14C]metformin uptake, 5 min, HEK-OCT3, means ± SE of 3 experiments; for OCT3-mediated metformin uptake at low PPI concentrations: low concentrations of PPI, Figure 3. Here is the method:
SLC22A1 cDNA and SLC22A2 cDNA had been PCR-amplified from human liver and kidney, respectively, as reported elsewhere and cDNAs were provided by the German Cancer Research Center; the study and the use of the tissue were approved by the institutional review board of the German Cancer Center, Heidelberg, Germany. Since the data were analyzed anonymously, and tissues were left-over samples from diagnostic procedures, written informed consent had not been required and obtained. IRB specifically waived the need for consent due to the fact the human tissue material used was fully anonymized. SLC22A3 cDNA was amplified using SLC22A3-TrueClone (Origene, Rockville, MD, USA) as the template. SLC22A1 cDNA was cloned into the expression vector pcDNA3.1/Hygro(-) (Invitrogen, Darmstadt, Germany), SLC22A2 and SLC22A3 cDNA into pcDNA3.1(+) (Invitrogen). Each transporter cDNA was sequenced and the respective deduced amino acid sequence was identical to the published reference protein sequence (OCT1: NP_003048.1; OCT2: NP_003049.2; OCT3: NP_068812.1). The human embryonic kidney 293 (HEK) cell line was obtained from the American Type Culture Collection. HEK cells were grown in DMEM (Sigma) supplemented with 10% fetal bovine serum (Sigma), 100 U⋅ml^−1 penicillin, and 100 µg⋅ml^−1 streptomycin (Lonza, Basel, Switzerland) at 37°C and 5% CO2. HEK cells were transfected with Metafectene Pro (Biontex, München, Germany). Selection of clones stably expressing OCT1 was carried out with 0.5 mg⋅ml^−1 hygromycin as described. Similarly, clones stably expressing OCT2 or OCT3 were selected with 800 µg⋅ml^−1 G418. HEK cells stably transfected with the empty pcDNA3.1(+) vector served as controls (HEK-Co). Cells were incubated with 5 mM butyrate 24 h before use to increase protein levels of recombinant transporters.
HEK cells (400000 cells/well) were seeded into 24-well cell culture plates (Greiner Bio-One, Frickenhausen, Germany) and grown for 48 h. Cell adherence was improved by coating plates with poly-L-lysine (Biochrom AG, Berlin, Germany) prior to cell plating. All uptake studies were carried out at 37°C as described. For uptake measurements, cells were firstly washed with uptake buffer (145 mM NaCl, 5 mM hydroxyethylpiperazine ethanesulfonic acid, 3 mM KCl, 1 mM CaCl2, 0.5 mM MgCl2, 5 mM glucose, pH 7.4, [46]) prewarmed to 37°C. […] Uptake was stopped at indicated time points by removing the uptake buffer and immediately washing the cells 3 times with ice-cold uptake buffer. Cells were lysed with 0.2% SDS and intracellular radioactivity was determined by liquid scintillation counting (Hidex 300SL TDCR liquid scintillation counter, Turku, Finland). For measuring inhibition of OCT-mediated metformin uptake by PPIs, 5 µM [^14C]metformin uptake was measured in the presence of different PPI concentrations and stopped after 5 min (OCT1, OCT3) or 5 sec (OCT2).
OCT-specific metformin uptake was obtained by subtracting metformin uptake in the presence of 2 mM unlabeled 1-methyl-4-phenylpyridinium (MPP) from that in its absence. […] OCT-specific metformin uptake in the presence of a PPI was then calculated as percentage of that in the absence of the respective PPI (100% uninhibited). For each PPI concentration, 3 individual experiments each with 3 parallel measurements were performed. Apparent IC50 values for inhibition of metformin uptake by PPIs were calculated for each individual experiment by fitting the values to the Hill equation using GraphPad Prism 4 (GraphPad Software Inc., La Jolla, CA, USA). Values in Table 1 are given as the means ± SE of the 3 individual experiments.

For the compound `COc1ccc2[nH]c([S+]([O-])Cc3ncc(C)c(OC)c3C)nc2n1` (stereo not drawn) [Tenatoprazole], inhibition was half-maximal at 14.7 ± 2.4 µM (IC50) and the “OCT3-mediated metformin uptake at low PPI concentrations” value (“OCT3-mediated metformin uptake” below) was “activated”.

For `C[n+]1ccc(-c2ccccc2)cc1` [MPP, 1-methyl-4-phenylpyridinium], the “Metformin uptake by HEK-OCT3 in the presence of MPP” value (5 µM metformin, 2 mM unlabeled MPP) is reported as “almost completely absent”.

On to `COc1ccc2[nH]c([S+]([O-])Cc3ncc(C)c(OC)c3C)nc2c1` (stereo not drawn) [Omeprazole], for which it took 22 ± 2.2 µM to reach half-maximal inhibition (IC50).

Take `Cc1c(OCC(F)(F)F)ccnc1C[S+]([O-])c1nc2ccccc2[nH]1` (stereo not drawn) [Lansoprazole]: the IC50 – broadly, the concentration needed to halve the response being measured – came to 3.1 ± 1.3 µM.

Turning to `COCCCOc1ccnc(C[S+]([O-])c2nc3ccccc3[nH]2)c1C` (stereo not drawn) [Rabeprazole], the IC50 is 3 ± 0.8 µM and the “OCT3-mediated metformin uptake” value is “activated”.

In the case of `COc1ccnc(C[S+]([O-])c2nc3ccc(OC(F)F)cc3[nH]2)c1OC` (stereo not drawn) [Pantoprazole], the IC50 was found to be 22.9 ± 5.2 µM and the “OCT3-mediated metformin uptake” value is given as “activated”.
